Reference: patent US8614236B2 (University of Washington, priority 2006, dated 2013)

How the values were obtained:
Beagle dogs = test: Dog study: arterial blood gases, ventilation and acid-base status in normoxia and hypoxia; format: in vivo; settings: po 5 mg/kg 12 and 1 hr before; hypoxia 3rd h
unanesthetized dogs = test: Effect of inhaled acetazolamide in unanesthetized dogs during hypoxia (vs iv and oral); format: in vivo, dog
[1] = inhaled 750 mg after 1 h of normoxia, hypoxia 2nd h
[2] = inhaled 750 mg after 1 h of normoxia, hypoxia 3rd h
[3] = inhaled 750 mg after 1 h of normoxia, normoxia 1st h
[4] = iv 2 mg/kg bolus + 2 mg/kg/h, hypoxia 2nd h
[5] = iv 2 mg/kg bolus + 2 mg/kg/h, hypoxia 3rd h
[6] = iv 2 mg/kg bolus + 2 mg/kg/h, normoxia 1st h
[7] = oral 5 mg/kg -12 h and -1 h, hypoxia 2nd h
[8] = oral 5 mg/kg -12 h and -1 h, hypoxia 3rd h
[9] = oral 5 mg/kg -12 h and -1 h, normoxia 1st h

## CC(=O)Nc1nnc(S(N)(=O)=O)s1 [AZ, acetazolamide]
Beagle dogs
  HCO3a, arterial actual bicarbonate concentration: 16.9 ± 0.5 mM
Unanesthetized dogs; [1]
  BEa: -5.2 ± 0.6 mM
  CO: 2.3 ± 0.2 L/min
  CVP: 2.5 ± 0.3 cmH2O
  GFR: 3.7 ± 0.3 mL·min
  HCO3a: 17.1 ± 0.6 mM
  HR: 86 ± 6 beats/min
  MAP: 105 ± 5 mmHg
  MPAP: 15 ± 1 mmHg
  PCWP: 3.9 ± 0.4 cmH2O
  PVR: 395 ± 29 dyn s^−1 cm
  PaCO2: 26 ± 1 Torr
  PaO2: 39 ± 1 Torr
  UNaV: 8.0 ± 1.3 µmol·min
  UV: 99 ± 16 μ min^−1 kg^−1
  VE: 5.5 ± 0.5 L/min
Unanesthetized dogs; [2]
  BEa: -5.7 ± 0.7 mM
  CO: 2.5 ± 0.1 L/min
  CVP: 2.1 ± 0.2 cmH2O
  GFR: 3.6 ± 0.3 mL·min
  HCO3a: 16.4 ± 0.5 mM
  HR: 100 ± 8 beats/min
  MAP: 105 ± 5 mmHg
  MPAP: 15 ± 1 mmHg
  PCWP: 3.6 ± 0.2 cmH2O
  PVR: 388 ± 30 dyn s^−1 cm
  PaCO2: 25 ± 1 Torr
  PaO2: 36 ± 1 Torr
  UNaV: 5.1 ± 0.7 µmol·min
  UV: 81 ± 15 μ min^−1 kg^−1
  VE: 5.7 ± 0.4 L/min
Unanesthetized dogs; [3]
  BEa: -3.9 ± 0.6 mM
  CO: 2.5 ± 0.1 L/min
  CVP: 2.8 ± 0.3 cmH2O
  GFR: 4.0 ± 0.4 mL·min
  HCO3a: 20.2 ± 0.5 mM
  HR: 85 ± 5 beats/min
  MAP: 92 ± 4 mmHg
  MPAP: 13 ± 1 mmHg
  PCWP: 4.3 ± 0.4 cmH2O
  PVR: 298 ± 21 dyn s^−1 cm
  PaCO2: 36 ± 1 Torr
  PaO2: 101 ± 2 Torr
  UNaV: 0.4 ± 0.1 µmol·min
  UV: 33 ± 8 μ min^−1 kg^−1
  VE: 3.2 ± 0.2 L/min
Unanesthetized dogs; inhaled, 12% oxygen for two hours
  pulmonary vascular response to hypoxia: successful in reducing
Unanesthetized dogs; [4]
  BEa: -4.6 ± 0.4 mM
  CO: 3.0 ± 0.4 L/min
  CVP: 2.2 ± 0.3 cmH2O
  GFR: 3.4 ± 0.3 mL·min
  HCO3a: 18.5 ± 0.5 mM
  HR: 103 ± 6 beats/min
  MAP: 102 ± 8 mmHg
  MPAP: 15 ± 1 mmHg
  PCWP: 3.5 ± 0.3 cmH2O
  PVR: 312 ± 36 dyn s^−1 cm
  PaCO2: 30 ± 1 Torr
  PaO2: 37 ± 1 Torr
  UNaV: 4.0 ± 0.6 µmol·min
  UV: 135 ± 27 μ min^−1 kg^−1
  VE: 6.5 ± 0.5 L/min
Unanesthetized dogs; [5]
  BEa: -6.1 ± 0.6 mM
  CO: 2.9 ± 0.5 L/min
  CVP: 2.3 ± 0.4 cmH2O
  GFR: 3.8 ± 0.3 mL·min
  HCO3a: 17.1 ± 0.5 mM
  HR: 106 ± 7 beats/min
  MAP: 103 ± 7 mmHg
  MPAP: 14 ± 1 mmHg
  PCWP: 3.7 ± 0.3 cmH2O
  PVR: 305 ± 26 dyn s^−1 cm
  PaCO2: 27 ± 1 Torr
  PaO2: 38 ± 1 Torr
  UNaV: 5.4 ± 1.2 µmol·min
  UV: 68 ± 12 μ min^−1 kg^−1
  VE: 6.9 ± 0.5 L/min
Unanesthetized dogs; [6]
  BEa: -4.0 ± 0.5 mM
  CO: 2.6 ± 0.2 L/min
  CVP: 1.8 ± 0.3 cmH2O
  GFR: 3.5 ± 0.3 mL·min
  HCO3a: 20.2 ± 0.4 mM
  HR: 74 ± 4 beats/min
  MAP: 95 ± 5 mmHg
  MPAP: 13 ± 1 mmHg
  PCWP: 3.8 ± 0.5 cmH2O
  PVR: 283 ± 37 dyn s^−1 cm
  PaCO2: 34 ± 1 Torr
  PaO2: 107 ± 3 Torr
  UNaV: 3.8 ± 0.6 µmol·min
  UV: 102 ± 12 μ min^−1 kg^−1
  VE: 4.1 ± 0.4 L/min
Unanesthetized dogs; [7]
  BEa: -6.3 ± 0.6 mM
  CO: 2.7 ± 0.2 L/min
  CVP: 1.9 ± 0.2 cmH2O
  GFR: 3.3 ± 0.2 mL·min
  HCO3a: 16.7 ± 0.6 mM
  HR: 109 ± 5 beats/min
  MAP: 106 ± 6 mmHg
  MPAP: 17 ± 1 mmHg
  PCWP: 3.5 ± 0.3 cmH2O
  PVR: 375 ± 33 dyn s^−1 cm
  PaCO2: 28 ± 1 Torr
  PaO2: 37 ± 1 Torr
  UNaV: 1.7 ± 0.5 µmol·min
  UV: 84 ± 15 μ min^−1 kg^−1
  VE: 6.6 ± 0.4 L/min
Unanesthetized dogs; [8]
  BEa: -6.4 ± 0.4 mM
  CO: 2.3 ± 0.1 L/min
  CVP: 1.9 ± 0.2 cmH2O
  GFR: 3.3 ± 0.2 mL·min
  HCO3a: 16.1 ± 0.4 mM
  HR: 102 ± 7 beats/min
  MAP: 107 ± 6 mmHg
  MPAP: 17 ± 1 mmHg
  PCWP: 3.5 ± 0.3 cmH2O
  PVR: 431 ± 45 dyn s^−1 cm
  PaCO2: 26 ± 1 Torr
  PaO2: 37 ± 1 Torr
  UNaV: 1.5 ± 0.4 µmol·min
  UV: 55 ± 8 μ min^−1 kg^−1
  VE: 6.3 ± 0.2 L/min
Unanesthetized dogs; [9]
  BEa: -6.5 ± 0.3 mM
  CO: 2.3 ± 0.2 L/min
  CVP: 2.3 ± 0.3 cmH2O
  GFR: 3.0 ± 0.2 mL·min
  HCO3a: 17.6 ± 0.3 mM
  HR: 85 ± 3 beats/min
  MAP: 95 ± 3 mmHg
  MPAP: 12 ± 1 mmHg
  PCWP: 3.9 ± 0.3 cmH2O
  PVR: 298 ± 27 dyn s^−1 cm
  PaCO2: 32 ± 1 Torr
  PaO2: 108 ± 2 Torr
  UNaV: 1.4 ± 0.6 µmol·min
  UV: 50 ± 9 μ min^−1 kg^−1
  VE: 4.6 ± 0.3 L/min
